Type in all cases: cell-based
Assay [1] addresses T1, human prostanoid EP4 receptor (Homo sapiens, UniProt P35408).
T1 construct: expressed in transfected cells
Kind of assay: FLIPR Ca2+ signaling PG antagonist assay, EP4 stable cell line. The conditions noted are these: HEK-293 EBNA cells, human recombinant EP4 with chimeric Gqs; standard agonist PGE2. The method, then: (§1) The above compounds were tested for PG antagonist activity as follows using human recombinant prostanoid receptor (DP1, EP1-4, FP, IP and TP) stable cell lines: In order to measure the response of Gs and Gi coupled prostanoid receptors as a Ca^2+ signal, chimeric G protein cDNAs were used. Stable cell lines over-expressing human prostanoid DP1, EP1-4, FP, IP, and TP receptors were established as follows:
(§2) Briefly, human prostanoid DP1, EP2, and EP4 receptor cDNAs were co-transfected with chimeric Gqs cDNA containing a haemagglutanin (HA) epitope; human prostanoid EP3 receptors were co-transfected with chimeric Gqi-HA; human EP1, FP, IP, and TP receptor cDNAs were expressed with no exogenous G-proteins. Gqs and Gqi chimeric cDNAs (Molecular Devices, Sunnyvale, Calif., U.S.A.), as well as cDNAs of prostanoid receptors, were cloned into a pCEP4 vector with a hygromycin B selection marker. Transfection into HEK-293 EBNA (Epstein-Barr virus nuclear antigen) cells was achieved by the FuGENE 6 transfection Reagent (Roche Applied Science, Indianapolis, Ind., USA). Stable transfectants were selected according to hygromycin resistance. Because Gqs and Gqi contained an HA epitope, G-protein expression was detected by Western blotting analysis using anti-mouse HA monoclonal antibody and horseradish peroxidase (HRP)-conjugated secondary antibody, while functional expression of prostanoid receptors was detected by FLIPR screening (Matias et al., 2004). These stable cell lines were validated using previously published antagonists at 10 μM against serial dilutions of standard agonists by FLIPR functional assays for Ca^2+ Signaling (as described below).
(§3) Ca^2+ signaling studies were performed using a FLIPR TETRA system (Molecular Devices, Sunnyvale, Calif., USA) in the 384-format. This is a high-throughput instrument for cell-based assays to monitor Ca^2+ signaling associated with GPCRs and ion channels. Cells were seeded at a density of 5×10^4 cells/well in BioCoat poly-D-lysine coated, black wall, clear bottom 384-well plates (BD Biosciences, Franklin lakes, NJ, USA) and allowed to attach overnight in an incubator at 37° C. The cells were then washed twice with HBSS-HEPES buffer (Hanks' balanced salt solution without bicarbonate and phenol red, 20 mM HEPES, pH 7.4) using an ELx405 Select CW Microplate Washer (BioTek, Winooski, Vt., USA). After 60 min of dye-loading in the dark using the Ca^2+-sensitive dye Fluo-4AM (Invitrogen, Carlsbad, Calif., USA), at a final concentration of 2×10^−6M, the plates were washed 4 times with HBSS-HEPES buffer to remove excess dye and leaving 50 μl of buffer in each well. The plates were then placed in the FLIPR TETRA instrument and allowed to equilibrate at 37° C. Compounds were added in a 25 μl volume to each well to give final concentrations of 0.1 μM, 0.3 μM, 1 μM, 3 μM, 10 μM, and 30 μM; or 0.067 μM, 0.1 μM, 0.2 μM, 0.3 μM, 0.67 μM, and 1 μM for cells over-expressing TP receptors. After 4.5 minutes, a 7-point serial dilution of the standard agonist for the corresponding receptor, in a 25 μl volume was injected at the final concentrations from 10^−11M to 10^−5M in 10-fold serial dilution increments for cells expressing human recombinant DP1, EP1, EP2, EP3, EP4, FP, and IP receptors. The dose range for the standard agonist for human recombinant TP receptors was from 10^−12M to 10^−6M. HBSS-HEPES buffer was used as the negative control for the standard agonists. Cells were excited with LED (light emitting diode) excitation at 470-495 nm and emission was measured through an emission filter at 515-575 nm. Assay plates were read for 3.5 minutes using the FLIPR^TETRA. The peak increase in fluorescence intensity was recorded for each well. On each plate, negative controls, dose response of positive controls, and co-treatments of antagonist-agonist for each dose were in triplicates. Standard agonists were as follows: DP=BW 245C, EP1-EP4=PGE2, FP=17-phenyl-PGF2α, IP=Cicaprost, and TP=U-46619. […]

For assay [2], the target named is T2, human prostanoid EP1 receptor (Homo sapiens, UniProt P34995).
T2 construct: expressed in transfected cells
T2 sequence (P34995 1-402): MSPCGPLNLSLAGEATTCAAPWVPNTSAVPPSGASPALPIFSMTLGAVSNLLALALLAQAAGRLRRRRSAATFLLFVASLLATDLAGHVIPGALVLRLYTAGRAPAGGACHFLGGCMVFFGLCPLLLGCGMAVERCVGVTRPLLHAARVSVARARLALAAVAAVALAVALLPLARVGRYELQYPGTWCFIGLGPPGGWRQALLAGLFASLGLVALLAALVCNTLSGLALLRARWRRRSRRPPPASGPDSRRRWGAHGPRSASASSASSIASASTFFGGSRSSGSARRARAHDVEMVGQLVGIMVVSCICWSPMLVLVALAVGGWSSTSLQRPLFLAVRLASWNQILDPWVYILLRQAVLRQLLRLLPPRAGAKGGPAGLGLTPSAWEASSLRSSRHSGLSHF
The assay can be described thus: FLIPR Ca2+ signaling PG antagonist assay, EP1 stable cell line. The settings on record: HEK-293 EBNA cells, human recombinant EP1, no exogenous G-protein; standard agonist PGE2. On the procedure:
as §1, §2, §3

The target of assay [3] is T3, human prostanoid EP3 receptor (Homo sapiens, UniProt P43115).
T3 construct: expressed in transfected cells
T3 sequence (P43115 1-390): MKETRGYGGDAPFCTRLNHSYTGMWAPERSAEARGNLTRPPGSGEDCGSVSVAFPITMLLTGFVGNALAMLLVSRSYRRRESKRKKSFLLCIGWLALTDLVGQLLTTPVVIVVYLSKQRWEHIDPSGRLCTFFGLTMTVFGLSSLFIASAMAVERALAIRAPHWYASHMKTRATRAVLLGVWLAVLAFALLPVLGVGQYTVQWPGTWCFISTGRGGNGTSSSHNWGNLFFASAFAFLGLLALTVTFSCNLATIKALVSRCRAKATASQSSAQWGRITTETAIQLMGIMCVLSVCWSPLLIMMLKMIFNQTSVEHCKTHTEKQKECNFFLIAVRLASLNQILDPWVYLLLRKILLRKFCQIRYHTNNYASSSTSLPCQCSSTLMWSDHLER
The assay can be described thus: FLIPR Ca2+ signaling PG antagonist assay, EP3 stable cell line. The settings on record: HEK-293 EBNA cells, human recombinant EP3 with chimeric Gqi; standard agonist PGE2. The method, then: as §1, §2, §3

Usually Kb stands for the equilibrium dissociation constant of an antagonist, usually derived from a functional assay.

T1 sequence (P35408 whole entry): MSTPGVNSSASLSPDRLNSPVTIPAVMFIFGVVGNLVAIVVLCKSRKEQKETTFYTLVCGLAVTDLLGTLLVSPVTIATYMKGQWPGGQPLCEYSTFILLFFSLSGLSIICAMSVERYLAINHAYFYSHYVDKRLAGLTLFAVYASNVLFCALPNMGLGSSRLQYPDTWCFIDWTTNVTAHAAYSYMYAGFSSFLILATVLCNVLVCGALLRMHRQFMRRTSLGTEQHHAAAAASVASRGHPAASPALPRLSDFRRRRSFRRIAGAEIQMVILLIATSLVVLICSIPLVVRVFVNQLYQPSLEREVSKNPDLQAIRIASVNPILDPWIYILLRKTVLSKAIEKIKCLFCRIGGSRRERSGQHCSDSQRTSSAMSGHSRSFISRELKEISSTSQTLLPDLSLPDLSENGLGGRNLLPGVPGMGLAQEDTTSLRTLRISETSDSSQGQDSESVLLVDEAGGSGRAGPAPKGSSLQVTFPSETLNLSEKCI

Consider `CC(C)COc1ccc(S(C)(=O)=O)cc1Cn1ncc2cc(C(=O)O)ccc21` [Example 48, 1-(2-Isobutoxy-5-Methanesulfonyl-Benzyl)-1H-Indazole-5-Carboxylic Acid], for which the Kb in assay [1] is not below 10000 nM; in assay [2], 260 nM; in assay [3], not below 10000 nM.

As to `CCC(CC)COc1ccc(Br)cc1Cn1cnc2cc(C(=O)O)ccc21` [Example 78, 1-[5-Bromo-2-(2-Ethyl-Butoxy)-Benzyl]-1H-Benzoimidazole-5-Carboxylic Acid], the Kb is 35 nM in assay [1], 145 nM in assay [2] and not below 10000 nM in assay [3].

Regarding `Cc1nn(Cc2cc(Cl)ccc2OCC(C)C)c2ncc(C(=O)O)cc12` [Example 61, 1-(5-Chloro-2-Isobutoxy-Benzyl)-3-Methyl-1H-Pyrazolo[3,4-B]Pyridine-5-Carboxylic Acid], the figures for the antagonist dissociation constant (Kb) in assay [1], in assay [2] and in assay [3] were 760 nM, 180 nM and not below 10000 nM, respectively.

Consider `CC(C)COc1ccc(OC(F)(F)F)cc1Cn1ccc2cc(C(=O)O)ccc21` [Example 71, 1-(2-Isobutoxy-5-Trifluoromethoxy-Benzyl)-1H-Indole-5-Carboxylic Acid], for which the Kb in assay [1] is 280 nM; in assay [2], 100 nM; in assay [3] it was not below 10000 nM.

In the case of `CC(C)COc1ccc(OC(F)(F)F)cc1Cn1ncc2cc(C(=O)O)ccc21` [Example 20, 1-(2-Isobutoxy-5-Trifluoromethoxy-Benzyl)-1H-Indazole-5-Carboxylic Acid], the Kb is 30 nM in assay [1], 30 nM in assay [2] and not below 10000 nM in assay [3].

Regarding `CC(C)(O)COc1ccc(Br)cc1Cn1ncc2cc(C(=O)O)ccc21` [Example 53, 1-[5-Bromo-2-(2-Hydroxy-2-Methyl-Propoxy)-Benzyl]-1H-Indazole-5-Carboxylic Acid], the Kb in assay [1] was not below 10000 nM; in assay [2], 1500 nM; in assay [3] it was not below 10000 nM.

`CCC(CC)Oc1ccc(Br)cc1Cn1ncc2cc(C(=O)O)ccc21` [Example 51, 1-[5-Bromo-2-(1-Ethyl-Propoxy)-Benzyl]-1H-Indazole-5-Carboxylic Acid]: the figures for the Kb in assay [1], in assay [2] and in assay [3] were 270 nM, 70 nM and 2600 nM, respectively.

`O=C(O)c1ccc2c(cnn2Cc2cc(Cl)ccc2OCc2ccc(Cl)cc2)c1` [Example 9, 1-[5-Chloro-2-(4-Chloro-Benzyloxy)-Benzyl]-1H-Indazole-5-Carboxylic Acid]: the Kb in assay [1] stood at 3000 nM; in assay [2] it was 90 nM; in assay [3], 4900 nM.

On to `CCC(CC)COc1ccc(Cl)cc1Cn1ncc2cc(C(N)=O)ncc21` [Example 62, 1-[5-Chloro-2-(2-Ethyl-Butoxy)-Benzyl]-1H-Pyrazolo[3,4-C]Pyridine-5-Carboxylic Acid Amide], for which the Kb in assay [1], in assay [2] and in assay [3] was not below 10000 nM throughout.

With `CC(C)COc1c(F)cc(Cl)cc1Cn1ncc2cc(C(=O)O)ccc21` [Example 47, 1-(5-Chloro-3-Fluoro-2-Isobutoxy-Benzyl)-1H-Indazole-5-Carboxylic Acid], the Kb is not below 10000 nM in assay [1], 2000 nM in assay [2] and not below 10000 nM in assay [3].

On to `Cc1cn(Cc2cc(OC(F)(F)F)ccc2OCC(C)C)c2ccc(C(=O)O)cc12` [Example 75, 1-(2-Isobutoxy-5-Trifluoromethoxy-Benzyl)-3-Methyl-1H-Indole-5-Carboxylic Acid], for which the Kb in assay [1] is 280 nM; in assay [2] it was 20 nM; in assay [3], not below 10000 nM.

Turning to `O=C(O)c1ccc2c(cnn2Cc2cc(Br)ccc2OCc2ccccc2)c1` [Example 12, 1-(2-Benzyloxy-5-Bromo-Benzyl)-1H-Indazole-5-Carboxylic Acid], the Kb is 1150 nM in assay [1], 360 nM in assay [2] and not below 10000 nM in assay [3].

Regarding `CC(C)COc1ccc(OC(F)(F)F)cc1Cn1ccc2cc(C(=O)O)cnc21` [Example 74, 1-(2-Isobutoxy-5-Trifluoromethoxy-Benzyl)-1H-Pyrrolo[2,3-B]Pyridine-5-Carboxylic Acid], the Kb was determined as 440 nM in assay [1], 60 nM in assay [2] and 2800 nM in assay [3].

With `O=C(O)c1cccc2nn(Cc3cc(Cl)ccc3OCC3CC3)cc12` [Example 35, 2-(5-Chloro-2-Cyclopropylmethoxy-Benzyl)-2H-Indazole-4-Carboxylic Acid], the Kb in assay [1] is 670 nM; in assay [2] it was 4200 nM; in assay [3], not below 10000 nM.

`CCC(CC)COc1ccc(Cl)cc1Cn1nc(C)c2cc(C(=O)O)cnc21` [Example 60, 1-[5-Chloro-2-(2-Ethyl-Butoxy)-Benzyl]-3-Methyl-1H-Pyrazolo[3,4-B]Pyridine-5-Carboxylic Acid]: the Kb in assay [1] worked out at 150 nM; in assay [2], 410 nM; in assay [3], 5100 nM.

Take `CC(C)COc1ccc(O)cc1Cn1ncc2cc(C(=O)O)ccc21` [Example 54]: the Kb in assay [1] is 2700 nM; in assay [2] it was 1300 nM; in assay [3], not below 10000 nM.

In the case of `CCc1nn(Cc2cc(Br)ccc2OCC(CC)CC)c2ccc(C(=O)O)cc12` [Example 65, 1-[5-Bromo-2-(2-Ethyl-Butoxy)-Benzyl]-3-Ethyl-1H-Indazole-5-Carboxylic Acid], the Kb in assay [1] amounted to 55 nM; in assay [2], 40 nM; in assay [3], 4700 nM.

Regarding `O=C(O)c1ccc2c(cnn2Cc2cc(C(F)(F)F)ccc2OCC2CCCC2)c1` [Example 33, 1-(2-Cyclopentylmethoxy-5-Trifluoromethyl-Benzyl)-1H-Indazole-5-Carboxylic Acid], the Kb worked out at 30 nM in assay [1], 70 nM in assay [2] and 1400 nM in assay [3].

Regarding `CCC(CC)COc1ccc(Br)cc1Cn1c(C)cc2cc(C(=O)O)ccc21` [Example 68, 1-[5-Bromo-2-(2-Ethyl-Butoxy)-Benzyl]-2-Methyl-1H-Indole-5-Carboxylic Acid], the Kb in assay [1] is 9700 nM; in assay [2], not below 10000 nM; in assay [3], not below 10000 nM.

The values are drawn from patent US10988474B2, “Compounds acting at multiple prostaglandin receptors giving a general anti-inflammatory response” (ALLERGAN, INC., priority 2011, dated 2021).
